This note sets out measurements from US4105768A, “Hypotensive substituted 1,2,4-triazoles” (priority 1973, dated 1978).

Like-named read-outs stand apart in the source and are kept apart here.

One may read the LD50 as the dose expected to kill half of the subjects tested.

Data set [1] concerns mice. The data set can be described thus: Effect on the spontaneous motor activity of mice. Format: in vivo, mouse. The following applies: i.p., mice; compared to Wy-8678. Here is the method:
(§1) The effect on the spontaneous motor activity was tested in mice. Groups of six animals were given the test compounds intraperitoneally one and three hours before test. The animals were placed individually in an activity meter and the activity was recorded for ten minutes. The dose which reduced the spontaneous motor activity to 50 percent of that of control mice was calculated.

Data set [2] in a line: Effect on the spontaneous motor activity of mice. Format: in vivo, mouse. The following applies: mouse, in vivo, ip, read-out: Intraperitoneal dose which reduced the spontaneous motor activity of mice to 50 % of control values; for ED50 at 1 h: measurements one hour after administration; for ED50 at 3 h: measurements three hours after administration. Here is the method: as §1

Data set [3] has as its system anaesthetized rats. It is filed as in vivo, rat.
The subject of data set [4] is renal hypertensive rats. The data set can be described thus: Antihypertensive effect (mean arterial blood pressure) in unanaesthetized renal hypertensive rats, oral. Format: in vivo, rat. Particulars: for Minimum daily oral dose with antihypertensive effects defined as the dose which reduced the mean arterial blood pressure more than 15 mm Hg in unanaesthetized renal hypertensive rats: three consecutive daily oral doses, measured before and three hours after administration. Here is the method:
The antihypertensive effects were tested in rats in which high blood pressure had been produced by removal of one kidney and restricting the blood flow to the remaining one two months before the experiments. The animals were prepared for measurements of the arterial blood pressure through a catheter implanted into the abdonimal aorta and exteriorized at the base of the neck. Groups of two rats were given three consecutive daily oral doses of the test compounds from the scale: 2.5, 5, 10, 20, and 40 mg/kg. Measurements were performed before and three hours after administration to the unanaesthetized animal. The minimum daily oral dose with antihypertensive effect was defined as the dose which reduced the mean arterial blood pressure more than 15 mm Hg.

A short description of data set [5]: Acute toxicity in mice (LD50 i.p.). Particulars: mouse, in vivo, ip.
For data set [6], the system named is spontaneously hypertensive rats of the SHR/N strain. The data set can be described thus: Antihypertensive effect in spontaneously hypertensive rats, oral. Particulars: Rattus norvegicus, 3 h; three consecutive daily oral doses; measured before and three hours after administration; unanesthetized SHR/N rats; read-out: effective antihypertensive dose, defined as the dose which reduced the mean arterial blood pressure more than 30 mm Hg. Format: in vivo. The procedure:
The antihypertensive effects of the hydrochloride salt of the compound of the invention with the designation FLA 486 having the formula [drawing 25] have been compared with those of FLA 136 with the formula [drawing 26] in spontaneously hypertensive rats of the SHR/N strain (Mollegaard Hansens Avlslaboratorier A/S, Denmark). The animals were prepared for measurements of the arterial blood pressure through a catheter implanted into the abdominal aorta and exteriorized at the base of the neck. Groups of two rats were given three consecutive daily oral doses of the test compounds. Measurements were performed before and three hours after administration to the unanesthetized animal. The effective antihypertensive dose of FLA 486, defined as the dose which reduced the mean arterial blood pressure more than 30 mm Hg was 5-10 mg/kg. The corresponding value for FLA 136 was 5-10 mg/kg.

As for `Cl.Nn1cnnc1NN=Cc1c(Cl)cccc1Cl` [FLA 136, 4-Amino-3-(2,6-dichlorobenzylidenehydrazino)-1,2,4-triazole hydrochloride], the “sedative effects (in words)” value in data set [1] is “lack of sedative effects”. Further, in data set [2], the ED50 at 1 h came to 90 mg/kg and the ED50 at 3 h was determined as 170 mg/kg. For the same compound, the “initial rise in blood pressure” value in data set [3] (rat, in vivo, iv, 40 mg/kg) is “did not produce an initial rise in blood pressure even at 40 mg/kg”. Further, in data set [4] (oral, compared with Wy-8678), the “antihypertensive effect (in words)” value is recorded as “of the same degree as that of one of the present known most active hypotensive compounds”. In data set [4], the “Minimum daily oral dose with antihypertensive effects defined as the dose which reduced the mean arterial blood pressure more than 15 mm Hg in unanaesthetized renal hypertensive rats” value lay within 2.5 to 5 mg/kg. Besides, the LD50 in data set [5] amounted to 340 mg/kg. In addition, the minimal effective dose in data set [6] was in the range of 5 to 10 mg/kg.
With `CNn1cnnc1NN=Cc1c(Cl)cccc1Cl` [FLA 486], the minimal effective dose in data set [6] fell in the range of 5 to 10 mg/kg.
As to `NC(N)=NN=Cc1c(Cl)cccc1Cl` [Wy-8678, reference compound], in data set [2], the ED50 at 1 h stood at 3 mg/kg and the ED50 at 3 h came out at 3 mg/kg. Also, in data set [3] (intravenous, consecutive increasing doses, anaesthetized rats, highest dose tested of test compound 40 mg/kg), the “initial rise in blood pressure” value was “produced a large increase in arterial pressure even at doses as low as 0.01 mg/kg”. In addition, the “Minimum daily oral dose with antihypertensive effects defined as the dose which reduced the mean arterial blood pressure more than 15 mm Hg in unanaesthetized renal hypertensive rats” value in data set [4] is 2.5 mg/kg. For the same compound, the LD50 in data set [5] came to 70 mg/kg.
